# Measurements taken from patent US20250092014A1, “COMPOUNDS AND METHODS OF ACTIVATING LIPOPROTEIN LIPASE” (Metrea Biosciences, Inc., priority 2021, published 2025).
# Target: T1, LPL:sGPIHBP1 complex (Homo sapiens, UniProt P06858)
# T1 sequence (P06858 28-475): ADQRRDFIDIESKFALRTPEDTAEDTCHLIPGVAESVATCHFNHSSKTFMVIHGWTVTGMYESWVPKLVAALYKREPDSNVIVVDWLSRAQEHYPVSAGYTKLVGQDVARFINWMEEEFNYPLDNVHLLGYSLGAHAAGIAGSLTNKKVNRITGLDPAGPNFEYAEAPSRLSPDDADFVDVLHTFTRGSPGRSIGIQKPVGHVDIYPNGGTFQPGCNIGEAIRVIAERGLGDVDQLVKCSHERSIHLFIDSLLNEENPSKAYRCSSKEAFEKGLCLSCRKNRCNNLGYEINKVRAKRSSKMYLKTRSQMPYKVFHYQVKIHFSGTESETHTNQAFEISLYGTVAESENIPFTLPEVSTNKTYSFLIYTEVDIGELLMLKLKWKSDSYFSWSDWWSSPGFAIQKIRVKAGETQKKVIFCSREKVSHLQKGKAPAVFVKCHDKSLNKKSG
# T1 sequence (Q8IV16 21-151 partner limits assumed): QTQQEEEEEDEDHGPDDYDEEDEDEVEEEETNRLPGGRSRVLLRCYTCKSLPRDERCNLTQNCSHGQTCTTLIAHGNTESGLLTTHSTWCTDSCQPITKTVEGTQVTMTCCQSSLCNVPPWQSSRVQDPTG
# Assay: RB assay (LPL:sGPIHBP1 pre-incubated with ANGPTL4, RB substrate)
# Type: biochemical
# Conditions: read-out: RB qAC50
# Protocol: The assay was performed in black 1536-well plates using purified proteins. To identify compounds that stimulate LPL activity either by directly activating LPL or by inhibiting the antagonist ANGPTL4, the LPL:sGPIHBP1 complex was pre-incubated with ANGPTL4 to decrease LPL activity by 80%. After a 60 min pre-incubation, the reaction was started by adding the RB substrate. 30 min after RB addition, the enzymatic reaction was stopped using SDS. Fluorescence intensity was measured 2 h after stopping the reaction.
# 20 or 40 nl of compound solution in 100% DMSO were placed in test plate. Then was added LPL:sGPIHBP1 to all wells (diluted in assay buffer to 5 nM; 2 μl/well). This was followed by an addition of ANGPTL4 to compounds and neutral controls (diluted in assay buffer to 20 nM; 1 μl/well). A buffer solution was added to the stimulator control (1 μl/well). The plates were then centrifuged and pre-incubated for 60 min at RT. The reaction was started by adding substrate to all wells (diluted in assay buffer to 40 μM, 1 μl/well). The plated were centrifuged (800 rpm for 1 min) and incubated 30 min at RT (=reaction time). The reaction was stopped by adding SDS to all wells (diluted in water to 2.5%, 2 μl/well); incubated 2 h at RT. The fluorescence intensity (ex 540 nm/em 590 nm) was measured on a Pherastar (BMG) using 5 flashes.
row,Structure (SMILES),EC50
1,"CC(C)(O)Cn1nc(C(=O)Nc2cc(C(=O)Nc3ccc(F)cc3CC(=O)O)ccc2N2CCCCC2)c2ccccc21 [Compound 106, 2-(5-fluoro-2-(3-(1-(2-hydroxy-2-methylpropyl)-1H-indazole-3-carboxamido)-4-(piperidin-1-yl)benzamido)phenyl)acetic acid]",7.7 µM
2,"N#CCn1nc(C(=O)Nc2cc(C(=O)Nc3ccc(F)cc3CC(=O)O)ccc2N2CCCCC2)c2ccccc21 [Compound 102, 2-(2-(3-(1-(cyanomethyl)-1H-indazole-3-carboxamido)-4-(piperidin-1-yl)benzamido)-5-fluorophenyl)acetic acid]",5.1 µM
3,O=C(O)Cc1cc(F)ccc1NC(=O)c1ccc(N2CCOCC2)c(NC(=O)c2nn(CC(F)(F)F)c3ccccc23)c1 [Example 56],15 µM
4,"O=C(O)Cc1cc(F)ccc1NC(=O)c1ccc(N2CCCCC2)c(NC(=O)c2nn(CCC(F)(F)F)c3ccccc23)c1 [Compound 121, 2-(5-fluoro-2-(4-(piperidin-1-yl)-3-(1-(3,3,3-trifluoropropyl)-1H-indazole-3-carboxamido)benzamido)phenyl)acetic acid]",4.2 µM
5,"O=C(O)Cc1cc(F)ccc1NC(=O)c1ccc(N2CCCCC2)c(NC(=O)c2nn(CCN3CCCC3)c3ccccc23)c1 [Compound 101, 2-(5-fluoro-2-(4-(piperidin-1-yl)-3-(1-(2-(pyrrolidin-1-yl)ethyl)-1H-indazole-3-carboxamido)benzamido)phenyl)acetic acid]",> 25 µM
6,"O=C(O)Cc1cc(F)ccc1NC(=O)c1ccc(N2CCCCC2)c(NC(=O)c2nn(CC3CCC3)c3ccccc23)c1 [Compound 98, 2-(2-(3-(1-(cyclobutylmethyl)-1H-indazole-3-carboxamido)-4-(piperidin-1-yl)benzamido)-5-fluorophenyl)acetic acid]",6.1 µM
7,"O=C(O)Cc1cc(F)ccc1NC(=O)c1ccc(N2CCCCC2)c(NC(=O)c2nn(C3CC3)c3ccccc23)c1 [Compound 97, 2-(2-(3-(1-cyclopropyl-1H-indazole-3-carboxamido)-4-(piperidin-1-yl)benzamido)-5-fluorophenyl)acetic acid]",13 µM
8,CC1(C)CCN(c2ccc(C(=O)Nc3ccc(F)cc3CC(=O)O)cc2NC(=O)c2nn(CC(F)(F)F)c3ccccc23)CC1 [Example 61],3.6 µM
9,"O=C(O)Cc1cc(F)ccc1NC(=O)c1ccc(N2CCCCC2)c(NC(=O)c2cc(-c3ccccc3)nn2CC(F)(F)F)c1 [Compound 134, 2-(5-fluoro-2-(3-(3-phenyl-1-(2,2,2-trifluoroethyl)-1H-pyrazole-5-carboxamido)-4-(piperidin-1-yl)benzamido)phenyl)acetic acid]",4.4 µM
10,COC1CCN(c2ccc(C(=O)Nc3ccc(F)cc3CC(=O)O)cc2NC(=O)c2nn(CC(F)(F)F)c3ccccc23)CC1 [Example 65],> 7.1 µM
11,"Cc1ccc2c(C(=O)Nc3cc(C(=O)Nc4ccc(F)cc4CC(=O)O)ccc3N3CCCCC3)nn(CC(F)(F)F)c2c1 [Compound 143, 2-(5-fluoro-2-(3-(6-methyl-1-(2,2,2-trifluoroethyl)-1H-indazole-3-carboxamido)-4-(piperidin-1-yl)benzamido)phenyl)acetic acid]",5 µM
12,"O=C(O)Cc1c(F)cccc1NC(=O)c1ccc(N2CCCCC2)c(NC(=O)c2nn(CC(F)(F)F)c3ccccc23)c1 [Compound 37, 2-(2-fluoro-6-(4-(piperidin-1-yl)-3-(1-(2,2,2-trifluoroethyl)-1H-indazole-3-carboxamido)benzamido)phenyl)acetic acid]",5 µM
13,"O=C(O)Cc1cc(Cl)ccc1NC(=O)c1ccc(N2CCCCC2)c(NC(=O)c2nn(CC(F)(F)F)c3ccccc23)c1 [Compound 23, 2-(5-chloro-2-(4-(piperidin-1-yl)-3-(1-(2,2,2-trifluoroethyl)-1H-indazole-3-carboxamido)benzamido)phenyl)acetic acid]",4.6 µM
14,CC1CC(C)CN(c2ccc(C(=O)Nc3ccc(F)cc3CC(=O)O)cc2NC(=O)c2nn(CC(F)(F)F)c3ccccc23)C1 (stereo not drawn) [Example 74],> 7.1 µM
15,O=C(O)Cc1cc(F)ccc1NC(=O)c1ccc(N2CCCC(F)(F)C2)c(NC(=O)c2nn(CC(F)(F)F)c3ccccc23)c1 [Example 62],> 7.1 µM
16,"O=C(O)Cc1cc(F)ccc1NC(=O)c1ccc(N2CCCCC2)c(NC(=O)c2nn(CC(F)(F)F)cc2-c2ccccc2)c1 [Compound 115, 2-(5-fluoro-2-(3-(4-phenyl-1-(2,2,2-trifluoroethyl)-1H-pyrazole-3-carboxamido)-4-(piperidin-1-yl)benzamido)phenyl)acetic acid]",> 7.1 µM
17,"O=C(O)Cc1cccc(F)c1NC(=O)c1ccc(N2CCCCC2)c(NC(=O)c2nn(CC(F)(F)F)c3ccccc23)c1 [Compound 24, 2-(3-fluoro-2-(4-(piperidin-1-yl)-3-(1-(2,2,2-trifluoroethyl)-1H-indazole-3-carboxamido)benzamido)phenyl)acetic acid]",3.2 µM
18,O=C(O)Cc1cc(F)ccc1NC(=O)c1ccc(N2CCCCC2=O)c(NC(=O)c2nn(CC(F)(F)F)c3ccccc23)c1 [Example 59],> 25 µM
19,"Cc1cc(Cn2nc(C(=O)Nc3cc(C(=O)Nc4ccc(F)cc4CC(=O)O)ccc3N3CCCCC3)c3ccccc32)no1 [Compound 124, 2-(5-fluoro-2-(3-(1-((5-methylisoxazol-3-yl)methyl)-1H-indazole-3-carboxamido)-4-(piperidin-1-yl)benzamido)phenyl)acetic acid]",4.7 µM
20,"C#CCn1nc(C(=O)Nc2cc(C(=O)Nc3ccc(F)cc3CC(=O)O)ccc2N2CCCCC2)c2ccccc21 [Compound 122, 2-(5-fluoro-2-(4-(piperidin-1-yl)-3-(1-(prop-2-yn-1-yl)-1H-indazole-3-carboxamido)benzamido)phenyl)acetic acid]",3.8 µM
21,"NCCn1nc(C(=O)Nc2cc(C(=O)Nc3ccc(F)cc3CC(=O)O)ccc2N2CCCCC2)c2ccccc21 [Compound 100, 2-(2-(3-(1-(2-aminoethyl)-1H-indazole-3-carboxamido)-4-(piperidin-1-yl)benzamido)-5-fluorophenyl)acetic acid]",> 25 µM
22,"O=C(O)Cc1ccccc1C(=O)Nc1ccc(N2CCCCC2)c(C(=O)Nc2nn(CC(F)(F)F)c3ccccc23)c1 [Compound 51, 2-(2-((4-(piperidin-1-yl)-3-((1-(2,2,2-trifluoroethyl)-1H-indazol-3-yl)carbamoyl)phenyl)carbamoyl)phenyl)acetic acid]",4.1 µM
23,CCC(C(=O)O)c1cc(F)ccc1NC(=O)c1ccc(N2CCCCC2)c(NC(=O)c2nn(CC(F)(F)F)c3ccccc23)c1 (stereo not drawn) [Example 28],4.2 µM
24,CN1CCN(c2ccc(C(=O)Nc3ccc(F)cc3CC(=O)O)cc2NC(=O)c2nn(CC(F)(F)F)c3ccccc23)CC1 [Example 57],> 7.1 µM
